Data: US20240199623A1 (ILDONG PHARMACEUTICAL CO., LTD., priority 2020, published 2024)

Assays:
[1] = Phosphate-buffered saline (PBS) solubility of compounds; type: physicochemical; conditions: aqueous buffer, thermodynamic from solid, PBS pH 7.5, 0.5 mg/mL, vortexed 90 min, filtered, LC-MS/MS, read-out: Solubility Range
Protocol: PBS solutions (pH 7.5) were prepared according to the following compositions and stored at 4° C. Test compounds were dissolved in PBS (pH 7.5) at 0.5 mg/mL and vortexed for 90 min. The PBS solution was sequentially filtered through a 0.45, 1.2, […] syringe filter. Concentration of test compounds were determined using LC-MS/MS with appropriate dilution of the samples.

C57BL/6 female mice = test: Scopolamine induced tear volume reduction model; type: in vivo, mouse; conditions: scopolamine-injected mice, ophthalmic solution topically on both eyes 3 times a day, phenol red thread; average if evaluated twice
Summary of the method: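 Seven-week-old female C57BL/6 mice received scopolamine (0.2 ml of 2.5 mg/mL) s.c. 3 times daily; test compounds in PBS with 1% surfactant applied topically to both eyes 3 times daily. Tear volume measured by phenol red thread length before dosing and 1 h after last administration; duplicate evaluations averaged.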

[2] = target: T1, Human recombinant PDE4A1A (Homo sapiens, UniProt P27815); test: Human phosphodiesterase 4 (PDE4) inhibition, PDE4A1A; type: biochemical; conditions: read-out: % inhibition range at 10 uM PDE4A1A; 10 uM test compound
T1 construct: purchased BPS Bioscience; host or cells: insect Sf9 cells
T1 sequence (P27815 1-647 isoform P27815-4): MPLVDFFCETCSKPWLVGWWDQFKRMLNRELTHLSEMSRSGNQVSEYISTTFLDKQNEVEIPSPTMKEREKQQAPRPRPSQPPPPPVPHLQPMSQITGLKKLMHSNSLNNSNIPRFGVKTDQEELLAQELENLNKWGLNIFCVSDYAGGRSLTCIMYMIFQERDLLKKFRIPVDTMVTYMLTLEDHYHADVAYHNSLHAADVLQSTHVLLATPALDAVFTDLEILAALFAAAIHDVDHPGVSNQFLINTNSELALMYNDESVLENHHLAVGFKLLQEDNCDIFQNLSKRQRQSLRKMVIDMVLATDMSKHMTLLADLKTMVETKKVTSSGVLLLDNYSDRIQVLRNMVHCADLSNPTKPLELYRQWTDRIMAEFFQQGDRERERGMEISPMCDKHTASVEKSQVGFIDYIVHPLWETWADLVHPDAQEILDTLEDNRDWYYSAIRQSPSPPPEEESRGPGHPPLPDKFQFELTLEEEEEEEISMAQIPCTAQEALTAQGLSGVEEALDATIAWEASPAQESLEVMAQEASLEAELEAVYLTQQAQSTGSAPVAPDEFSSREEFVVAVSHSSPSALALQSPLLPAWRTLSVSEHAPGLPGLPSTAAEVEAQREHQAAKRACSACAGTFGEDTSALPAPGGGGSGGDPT
Protocol: (§1) […] Human recombinant PDE4A1A, PDE4B 1, PDE4C1 and PDE4D2 are respectively expressed in each host cell (insect Sf9 cells, BPS Bioscience). Preincubation of 10 μM test compounds or vehicle was proceeded with 20 ng/ml PDE4A1A or 4 ng/ml PDE4B 1 or 8 ng/ml PDE4C1 or 5 ng/ml PDE4D2 enzyme in Tris-HCl buffer pH 7.2 for 15 minutes at 25° C. 100 nM fluorescein (FAM) labeled cAMP for another 30 minutes incubation period was added in order to initiate the enzymatic reaction and addition of IMAP binding solution was followed for its termination. Specifically, IMAP complexes with phosphate groups on nucleotide monophosphate generated from cyclic nucleotides through PDE activity. The amount of complex formed is determined by reading spectrofluorimetrical signal at 470 nm/525 nm.

[3] = target: T2, Human recombinant PDE4B 1 (Homo sapiens, UniProt Q07343); test: Human phosphodiesterase 4 (PDE4) inhibition, PDE4B 1; type: biochemical; conditions: read-out: % inhibition range at 10 uM PDE4B1; 10 uM test compound
T2 construct: purchased BPS Bioscience; host or cells: insect Sf9 cells
T2 sequence (Q07343 whole entry): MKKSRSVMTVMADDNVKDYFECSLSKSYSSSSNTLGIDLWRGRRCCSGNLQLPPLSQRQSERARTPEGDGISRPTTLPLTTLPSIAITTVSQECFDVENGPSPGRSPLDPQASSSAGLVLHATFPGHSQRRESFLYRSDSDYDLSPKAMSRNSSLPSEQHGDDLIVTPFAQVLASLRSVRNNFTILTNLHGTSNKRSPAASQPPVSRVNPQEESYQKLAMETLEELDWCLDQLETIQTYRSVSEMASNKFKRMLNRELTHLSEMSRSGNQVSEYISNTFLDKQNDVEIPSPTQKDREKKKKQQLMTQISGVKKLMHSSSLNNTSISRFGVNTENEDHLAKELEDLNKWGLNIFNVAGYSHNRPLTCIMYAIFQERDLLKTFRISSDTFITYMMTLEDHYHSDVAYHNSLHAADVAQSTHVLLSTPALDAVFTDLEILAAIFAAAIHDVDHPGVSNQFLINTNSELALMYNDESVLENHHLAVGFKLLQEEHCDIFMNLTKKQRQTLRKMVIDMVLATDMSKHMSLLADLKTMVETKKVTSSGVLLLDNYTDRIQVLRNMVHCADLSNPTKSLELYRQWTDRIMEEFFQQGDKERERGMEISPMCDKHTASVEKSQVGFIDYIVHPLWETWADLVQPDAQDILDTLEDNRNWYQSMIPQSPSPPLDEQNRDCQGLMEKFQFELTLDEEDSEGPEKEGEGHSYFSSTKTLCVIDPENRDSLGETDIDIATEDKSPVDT
Protocol: as §1

Human recombinant PDE4C1 = target: T3, Human recombinant PDE4C1 (Homo sapiens, UniProt Q08493); test: Human phosphodiesterase 4 (PDE4) inhibition, PDE4C1; type: biochemical; conditions: read-out: % inhibition range at 10 uM PDE4C1; 10 uM test compound
T3 construct: purchased BPS Bioscience; host or cells: insect Sf9 cells
T3 sequence (Q08493 whole entry): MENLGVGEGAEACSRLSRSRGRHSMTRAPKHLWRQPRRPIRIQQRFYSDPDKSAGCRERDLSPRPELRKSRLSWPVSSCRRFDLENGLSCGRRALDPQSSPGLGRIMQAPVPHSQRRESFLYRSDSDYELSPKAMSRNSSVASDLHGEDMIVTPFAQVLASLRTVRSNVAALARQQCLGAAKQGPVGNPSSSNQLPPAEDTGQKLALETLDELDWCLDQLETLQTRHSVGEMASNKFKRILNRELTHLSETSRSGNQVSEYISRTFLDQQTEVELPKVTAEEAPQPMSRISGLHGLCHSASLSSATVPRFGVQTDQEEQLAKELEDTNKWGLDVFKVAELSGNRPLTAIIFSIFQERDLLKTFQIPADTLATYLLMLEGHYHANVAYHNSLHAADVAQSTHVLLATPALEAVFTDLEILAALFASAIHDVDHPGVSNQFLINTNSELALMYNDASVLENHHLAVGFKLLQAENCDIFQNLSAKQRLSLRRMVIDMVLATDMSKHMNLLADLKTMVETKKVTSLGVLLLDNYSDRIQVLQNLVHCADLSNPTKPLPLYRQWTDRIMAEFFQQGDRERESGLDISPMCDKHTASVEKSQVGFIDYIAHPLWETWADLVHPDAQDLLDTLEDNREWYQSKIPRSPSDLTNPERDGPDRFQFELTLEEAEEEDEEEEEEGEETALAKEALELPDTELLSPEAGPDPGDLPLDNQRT
Protocol: as §1

Human recombinant PDE4D2 = target: T4, Human recombinant PDE4D2 (Homo sapiens, UniProt Q08499); test: Human phosphodiesterase 4 (PDE4) inhibition, PDE4D2; type: biochemical; conditions: read-out: % inhibition range at 10 uM PDE4D2; 10 uM test compound
T4 construct: purchased BPS Bioscience; host or cells: insect Sf9 cells
T4 sequence (Q08499 303-809 limits assumed): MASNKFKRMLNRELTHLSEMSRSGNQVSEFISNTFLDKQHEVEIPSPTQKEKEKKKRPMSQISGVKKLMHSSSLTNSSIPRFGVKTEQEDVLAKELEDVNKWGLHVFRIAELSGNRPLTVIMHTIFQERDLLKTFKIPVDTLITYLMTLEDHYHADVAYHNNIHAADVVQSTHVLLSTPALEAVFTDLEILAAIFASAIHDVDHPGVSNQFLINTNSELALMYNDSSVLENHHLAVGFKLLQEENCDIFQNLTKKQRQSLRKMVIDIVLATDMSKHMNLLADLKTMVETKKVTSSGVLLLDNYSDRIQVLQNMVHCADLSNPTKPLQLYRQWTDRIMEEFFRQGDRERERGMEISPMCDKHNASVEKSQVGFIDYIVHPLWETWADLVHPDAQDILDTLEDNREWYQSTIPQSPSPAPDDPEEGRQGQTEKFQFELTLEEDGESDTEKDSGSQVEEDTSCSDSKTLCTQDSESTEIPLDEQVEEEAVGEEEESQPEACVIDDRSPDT
Protocol: as §1

human wild type-CFTR [4] = target: T5, human wild type-CFTR (Homo sapiens, UniProt P13569); test: Short-circuit current measurement; type: cell-based; parameters: expressed in transfected cells; conditions: FRT cells expressing human wild type-CFTR; Forskolin 20 μM signal used as 100% activity; read-out: Short-circuit current measurement (EC50) Concentration range
T5 sequence (P13569 whole entry): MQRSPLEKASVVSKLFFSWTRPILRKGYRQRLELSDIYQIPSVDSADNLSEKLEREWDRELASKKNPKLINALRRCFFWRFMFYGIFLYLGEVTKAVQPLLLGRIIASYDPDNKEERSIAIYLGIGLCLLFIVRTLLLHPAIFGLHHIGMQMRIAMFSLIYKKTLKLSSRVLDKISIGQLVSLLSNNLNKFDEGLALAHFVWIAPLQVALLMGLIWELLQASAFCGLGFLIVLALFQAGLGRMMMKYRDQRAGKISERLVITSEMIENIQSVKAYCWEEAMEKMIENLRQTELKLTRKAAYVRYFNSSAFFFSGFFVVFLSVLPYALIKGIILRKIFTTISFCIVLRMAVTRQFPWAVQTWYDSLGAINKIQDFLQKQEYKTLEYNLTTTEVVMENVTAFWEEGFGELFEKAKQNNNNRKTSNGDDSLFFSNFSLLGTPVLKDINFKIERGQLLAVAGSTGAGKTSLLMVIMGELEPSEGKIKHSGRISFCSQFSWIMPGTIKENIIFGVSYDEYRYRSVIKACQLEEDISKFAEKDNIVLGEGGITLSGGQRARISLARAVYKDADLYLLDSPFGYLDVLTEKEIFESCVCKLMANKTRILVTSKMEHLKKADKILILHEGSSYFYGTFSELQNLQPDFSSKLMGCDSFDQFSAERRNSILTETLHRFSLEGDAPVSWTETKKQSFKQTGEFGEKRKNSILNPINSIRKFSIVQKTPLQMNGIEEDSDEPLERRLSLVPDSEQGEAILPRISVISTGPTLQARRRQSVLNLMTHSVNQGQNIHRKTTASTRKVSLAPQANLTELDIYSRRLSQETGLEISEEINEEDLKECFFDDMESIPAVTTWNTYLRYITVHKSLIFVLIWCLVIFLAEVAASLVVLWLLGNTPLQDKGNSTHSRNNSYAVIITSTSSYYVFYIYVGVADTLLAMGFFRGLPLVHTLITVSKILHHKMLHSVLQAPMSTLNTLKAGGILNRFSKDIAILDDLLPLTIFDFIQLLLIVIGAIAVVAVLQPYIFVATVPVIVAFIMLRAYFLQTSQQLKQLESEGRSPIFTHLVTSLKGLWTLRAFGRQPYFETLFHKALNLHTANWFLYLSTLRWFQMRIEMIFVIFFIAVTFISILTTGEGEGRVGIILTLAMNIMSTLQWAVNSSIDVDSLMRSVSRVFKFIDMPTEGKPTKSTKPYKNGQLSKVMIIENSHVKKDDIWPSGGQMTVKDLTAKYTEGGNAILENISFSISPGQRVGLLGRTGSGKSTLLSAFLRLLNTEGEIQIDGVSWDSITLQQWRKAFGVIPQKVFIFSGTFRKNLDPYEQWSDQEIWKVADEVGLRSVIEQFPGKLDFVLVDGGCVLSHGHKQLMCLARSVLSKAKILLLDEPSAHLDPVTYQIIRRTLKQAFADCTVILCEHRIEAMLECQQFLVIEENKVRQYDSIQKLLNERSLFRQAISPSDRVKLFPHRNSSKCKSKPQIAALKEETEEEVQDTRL
Summary of the method: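 Ussing-chamber short-circuit current in FRT cells expressing human wild-type CFTR, grown on Snapwell inserts. Forskolin, test compounds and CFTRinh-172 added to both apical and basolateral baths; apical membrane current and Isc sampled at 4 Hz.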

human wild type-CFTR [5] = target: T5, human wild type-CFTR; test: Cell-based YFP assay; parameters: expressed in transfected cells; host or cells: CHO-K1 (Chinese hamster ovary); conditions: CHO-K1 cells expressing human wild type-CFTR and YFP-H148Q/I152L; forskolin 20 μM = 100% activity; read-out: Cell-based YFP Assay (EC50) Concentration Range
Summary of the method: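 CHO-K1 cells co-expressing human wild-type CFTR and YFP-H148Q/I152L halide sensor, grown 48 h at 37 °C, then in PBS. YFP quenching by I⁻ influx read at 37 °C after adding 140 mM I⁻ solution, sampled every 0.4 s for 14 s. Triplicates averaged; EC50 fitted.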

In the case of `COc1ccc(-c2ccnc3cc(C(=O)Nc4ccc(O)cc4)nn23)cc1OC` [Compound 15, 7-(3,4-dimethoxyphenyl)-N-(4-hydroxyphenyl)pyrazolo[1,5-a]pyrimidine-2-carboxamide], the solubility at 90 min [1] is reported as < 0.1 µg/mL, the “Ratio of tear volume (test compound to vehicle)” value (shortened to “Ratio of tear volume”) (C57BL/6 female mice) is reported as 1.29 and the inhibition at 10 µM [2] is reported as > 80%. For the same compound, the inhibition at 10 µM [3] was > 80%, the inhibition at 10 µM (Human recombinant PDE4C1) was > 80% and the inhibition at 10 µM (Human recombinant PDE4D2) was > 80%. The EC50 (human wild type-CFTR [4]) was < 200 nM and the EC50 (human wild type-CFTR [5]) was < 200 nM.

In the case of `COC(=O)C12CCC(NC(=O)c3cc4nccc(-c5ccc(OC)c(OC)c5)n4n3)(CC1)CC2` [Compound 144, methyl 4-(7-(3,4-dimethoxyphenyl)pyrazolo[1,5-a]pyrimidine-2-carboxamido)bicyclo[2.2.2]octane-1-carboxylate], the solubility at 90 min [1] is reported as < 0.1 µg/mL, the “Ratio of tear volume” value (C57BL/6 female mice) is reported as 1.18 and the inhibition at 10 µM [2] is reported as > 80%. The inhibition at 10 µM [3] was > 80%, the inhibition at 10 µM (Human recombinant PDE4C1) was > 80% and the inhibition at 10 µM (Human recombinant PDE4D2) was > 80%. The EC50 (human wild type-CFTR [4]) was < 200 nM and the EC50 (human wild type-CFTR [5]) was < 200 nM.

With `COc1ccc(-c2ccnc3cc(C(=O)Nc4ccc(C(=O)N[C@H](C(=O)N5CCOCC5)C(C)C)cc4)nn23)cc1OC` [Compound 147, (S)-7-(3,4-dimethoxyphenyl)-N-(4-((3-methyl-1-morpholino-1-oxobutan-2-yl)carbamoyl)phenyl) pyrazolo[1,5-a]pyrimidine-2-carboxamide] the solubility at 90 min [1] was < 0.1 µg/mL, the “Ratio of tear volume” value (C57BL/6 female mice) was 1.03 and the inhibition at 10 µM [2] was > 80%. The inhibition at 10 µM [3] was > 80%, the inhibition at 10 µM (Human recombinant PDE4C1) was > 80% and the inhibition at 10 µM (Human recombinant PDE4D2) was > 80%. The EC50 (human wild type-CFTR [4]) was < 200 nM and the EC50 (human wild type-CFTR [5]) was < 200 nM.
